{"source": "patent US20070098469A1", "about": "“Fixing apparatus for nonheat fixing system, and image forming apparatus having fixing apparatus” (priority 2005, published 2007)", "origin": "cited, not measured here", "data": [{"details": "in vivo", "units": {"LD50": "mg/kg"}, "values": [{"smiles": "CCCCOC(=O)CCCCCCCCC(=O)OCCCC", "note": "[Di-n-butyle sebacate]", "LD50": 14900}, {"smiles": "CCOCCOC(=O)CCC(=O)OCCOCC", "note": "[Diethoxyethyl succinate]", "LD50": 5000}, {"smiles": "CC(C)COC(=O)CCCCC(=O)OCC(C)C", "note": "[Diisobutyl adipate]", "LD50": 12300}, {"smiles": "CCO", "note": "[Ethanol]", "LD50": 20000}]}]}
